The text below walks through data of patent publication US20050032873A1, “3-Amino chroman and 2-amino tetralin derivatives” (Wyeth, priority 2003, published 2005).

One test deals with T1, serotonin transporter (Rattus norvegicus, UniProt P31652).
T1 construct: displace ^3H-paroxetine from male rat cortical membranes; from tissue; host or cells: male rat cortical membranes
As to the kind of experiment: 5-HT transporter affinity: displacement of 3H-paroxetine from male rat cortical membranes. The format is binding. The note with it: displacement of 3H-paroxetine; male rat cortical membranes; read-out: 5-HT Transporter Affinity Ki. (In a radioligand displacement assay an active substance lowers the binding of a labelled ligand.)

Test [1] concerns the target T2, cloned human 5-HT1A receptors (Homo sapiens, UniProt P08908).
T2 construct: expressed in transfected cells
T2 sequence (P08908 1-422): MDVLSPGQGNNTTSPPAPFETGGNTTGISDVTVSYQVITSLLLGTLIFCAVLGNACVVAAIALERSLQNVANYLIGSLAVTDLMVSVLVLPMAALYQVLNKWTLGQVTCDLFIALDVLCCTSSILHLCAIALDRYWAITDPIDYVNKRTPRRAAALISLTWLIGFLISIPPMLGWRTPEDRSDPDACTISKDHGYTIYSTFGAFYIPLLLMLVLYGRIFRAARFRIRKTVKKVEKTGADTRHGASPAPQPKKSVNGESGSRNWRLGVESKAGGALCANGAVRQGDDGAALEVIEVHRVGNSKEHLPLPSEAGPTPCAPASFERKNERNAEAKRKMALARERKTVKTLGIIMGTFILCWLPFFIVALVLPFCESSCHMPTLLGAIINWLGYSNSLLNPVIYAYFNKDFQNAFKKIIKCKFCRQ
As to the kind of experiment: 35S-GTPγS binding assay, 5-HT1A function. The class given is biochemical. The note with it: for EC50: agonist potency; for IC50: antagonist potency, reversal of 8-OH-DPAT, read-out: 5-HT1A Function GTPγS IC50. For orientation: GTPγS resists hydrolysis and so accumulates on activated G proteins.

For test [2], the target named is T3, 5-HT1A receptor (Homo sapiens, UniProt P08908).
T3 sequence (P08908 1-422): T2 sequence (P08908 1-422)
As to the kind of experiment: cAMP accumulation assay, 5-HT1A function. The class given is cell-based. Conditions: for EC50: cells marked EC50 (agonist); for 5-HT1A Function cAMP (Emax) / Emax: in brackets after EC50 or IC50; for IC50: cells marked IC50 (antagonist), read-out: 5-HT1A Function cAMP IC50; for Emax: read-out: 5-HT1A Function cAMP (Emax). On the technique in general: cAMP levels reflect the balance of adenylyl cyclase and phosphodiesterase activity.

The target in test [3] is T3, 5-HT1A receptor. Briefly: 5-HT1A receptor affinity: displacement of [3H] 8-OH-DPAT. The class given is binding. More on the design: expressed in transfected cells. Conditions: displacement of [3H] 8-OH-DPAT; CHO cells stably transfected with human 5-HT1A receptors; read-out: 5-HT1A Receptor Affinity Ki.
Where [4] appears, read: maximum stimulatory effect, in brackets after EC50, read-out: 5-HT1A Function GTPγS (Emax).
Where [5] appears, read: maximum inhibitory effect, in brackets after IC50.

Where two headings read alike, the source gives them in different places.

T1 sequence (P31652 whole entry): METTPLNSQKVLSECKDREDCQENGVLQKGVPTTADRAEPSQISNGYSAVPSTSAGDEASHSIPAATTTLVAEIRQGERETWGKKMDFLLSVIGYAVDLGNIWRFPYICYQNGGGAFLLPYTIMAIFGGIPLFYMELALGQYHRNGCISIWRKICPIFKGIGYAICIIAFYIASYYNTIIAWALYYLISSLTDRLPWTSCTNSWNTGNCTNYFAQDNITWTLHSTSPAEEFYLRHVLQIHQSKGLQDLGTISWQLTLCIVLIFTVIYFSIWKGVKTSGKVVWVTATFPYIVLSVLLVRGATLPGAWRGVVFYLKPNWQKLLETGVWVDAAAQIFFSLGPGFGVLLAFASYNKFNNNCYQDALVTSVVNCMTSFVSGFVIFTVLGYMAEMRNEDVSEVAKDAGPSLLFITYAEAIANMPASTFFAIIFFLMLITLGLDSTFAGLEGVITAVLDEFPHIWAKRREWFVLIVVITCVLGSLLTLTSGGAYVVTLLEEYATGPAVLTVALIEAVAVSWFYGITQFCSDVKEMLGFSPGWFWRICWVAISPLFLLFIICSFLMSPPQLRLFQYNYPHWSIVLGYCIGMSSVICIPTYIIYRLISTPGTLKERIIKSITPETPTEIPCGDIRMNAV

As usually defined, the Ki is a dissociation constant, usually derived from enzyme kinetics or from competition with a known ligand. The EC50 is the midpoint of the concentration-response curve. As for `CCCN(C(C)CCc1c[nH]c2ccc(C#N)cc12)C1COc2c(F)ccc(C(N)=O)c2C1` (single isomer, unassigned) [Compound 13b, 3-[[3-(5-cyano-1H-indol-3-yl)-1-methylpropyl](propyl)amino]-8-fluoro-3,4-dihydro-2H-chromene-5-carboxamide], the Ki on serotonin transporter was determined as 37 nM; on 5-HT1A receptor [3] it was 152 nM. Further, the EC50 in test [1] is 1470 nM; on 5-HT1A receptor [2] it was 139 nM. Besides, the Emax in test [1] (setting [4]) was found to be 56.5%. Also, the 5-HT1A Function cAMP (Emax) at 5-HT1A receptor [2] was determined as 68%.
A word on the IC50: it is the concentration needed to halve the response being measured. With `CCCN(C(C)CCc1c[nH]c2ccc(C#N)cc12)C1COc2c(F)ccc(C(N)=O)c2C1` (single isomer, unassigned) [Compound 13c, 3-[[3-(5-cyano-1H-indol-3-yl)-1-methylpropyl](propyl)amino]-8-fluoro-3,4-dihydro-2H-chromene-5-carboxamide], the Ki came out at 118 nM on serotonin transporter and 119 nM on 5-HT1A receptor [3]. Also, the IC50 in test [1] was determined as 2520 nM; at 5-HT1A receptor [2], 316 nM. Also, in test [1] (setting [5]), the 5-HT1A Function GTPγS (Imax) was 92%. The molecule also displayed a 5-HT1A Function cAMP (Emax) at 5-HT1A receptor [2] of 0%.
Take `CC(CCc1c[nH]c2c(F)cc(F)cc12)N(CC1CC1)C1COc2c(F)ccc(C(N)=O)c2C1` (single isomer, unassigned) [Compound 154c, 3-{(cyclopropylmethyl)[3-(5,7-difluoro-1H-indol-3-yl)-1-methylpropyl]amino}-8-fluorochromane-5-carboxamide]: the results for the inhibition constant (Ki) on serotonin transporter and at 5-HT1A receptor [3] were 67.5 nM and 24.8 nM, respectively. Further, the values for the half-inhibitory concentration (IC50) (in test [1]; at 5-HT1A receptor [2]) were 1990 nM and 3090 nM, respectively. The 5-HT1A Function GTPγS (Imax) in test [1] (setting [5]) was 100%. For the same molecule, the Emax on 5-HT1A receptor [2] stood at 0%.
Consider `CC(Cc1c[nH]c2ccc(F)cc12)CN(CC1CC1)[C@H]1COc2c(F)ccc(C(N)=O)c2C1` (single isomer, unassigned) [Compound 155a], for which the Ki at serotonin transporter amounted to 48.8 nM; at 5-HT1A receptor [3], 4.16 nM. The IC50 was 151 nM in test [1] and 106 nM on 5-HT1A receptor [2]. The Emax in test [1] (maximum inhibitory effect, in brackets after IC50, read-out: 5-HT1A Function GTPγS (Imax)) is 100%; on 5-HT1A receptor [2], 0%.
With `NC(=O)c1ccc(F)c2c1CC(NCCCc1c[nH]c3ccc(F)cc13)CO2` (single isomer, unassigned; (+)) [Compound 1a, (+)-8-fluoro-3-{[3-(5-fluoro-1H-indol-3-yl)propyl]amino}chromane-5-carboxamide], the inhibitory constant (Ki) is 26.2 nM on serotonin transporter and 46.3 nM at 5-HT1A receptor [3]. Also, the values for the half-maximal effective concentration (EC50) (in test [1]; at 5-HT1A receptor [2]) were 993 nM and 95.8 nM, respectively. For the same molecule, the Emax in test [1] (setting [4]) is 87%; at 5-HT1A receptor [2], 84.5%.
As for `CCCN(CCCc1c[nH]c2ccc(F)cc12)C1COc2c(F)ccc(C(N)=O)c2C1` (single isomer, unassigned; (+)) [Compound 2b, (+)-8-fluoro-3-[[3-(5-fluoro-1H-indol-3-yl)propyl](propyl)amino]-3,4-dihydro-2H-chromene-5-carboxamide], the results for the inhibitory constant (Ki) at serotonin transporter and at 5-HT1A receptor [3] were 3.86 nM and 2.21 nM, respectively. Also, the values for the EC50 (in test [1]; on 5-HT1A receptor [2]) were 36.3 nM and 19.9 nM, respectively. In addition, the Emax in test [1] (setting [4]) was 80%. The molecule also came in with a 5-HT1A Function cAMP (Emax) on 5-HT1A receptor [2] of 97%.
With `CCN(CCCc1c[nH]c2ccc(F)cc12)C1COc2c(F)ccc(C(N)=O)c2C1` (single isomer, unassigned; (+)) [Compound 3b, (+)-3-{ethyl[3-(5-fluoro-1H-indol-3-yl)propyl]amino}-8-fluoro-3,4-dihydro-2H-chromene-5-carboxamide], the Ki on serotonin transporter came to 4.5 nM. Further, in test [1], the IC50 came to 665 nM. Moreover, the 5-HT1A Function GTPγS (Imax) in test [1] (setting [5]) was 35.8%. Besides, on 5-HT1A receptor [2], the concentration for a half-maximal effect (EC50) amounted to 31.4 nM and the 5-HT1A Function cAMP (Emax) is 90.5%. Further, on 5-HT1A receptor [3], the Ki stood at 15.5 nM.
As to `NC(=O)c1ccc(F)c2c1CC(N(CCCc1c[nH]c3c(F)cc(F)cc13)C1CCC1)CO2` (single isomer, unassigned; (+)) [Compound 9b, (+)-3-{cyclobutyl[3-(5,7-difluoro-1H-indol-3-yl)propyl]amino}-8-fluorochromane-5-carboxamide], the Ki was 12.2 nM at serotonin transporter and 68.9 nM on 5-HT1A receptor [3]. The IC50 in test [1] was determined as 6000 nM; at 5-HT1A receptor [2] it was 197 nM. The 5-HT1A Function GTPγS (Imax) in test [1] (setting [5]) came to 74%. In addition, the 5-HT1A Function cAMP (Emax) on 5-HT1A receptor [2] is 0%.
In the case of `CCCN(C(C)CCCc1c[nH]c2ccc(F)cc12)C1COc2c(F)ccc(C(N)=O)c2C1` (single isomer, unassigned; (+)) [Compound 14a, (+)-8-fluoro-3-[[4-(5-fluoro-1H-indol-3-yl)-1-methylbutyl](propyl)amino]chromane-5-carboxamide], the inhibition constant Ki came to 13.6 nM on serotonin transporter and 41.7 nM on 5-HT1A receptor [3]. Also, the figures for the half-maximal inhibitory concentration (IC50) (in test [1]; at 5-HT1A receptor [2]) were 2210 nM and 147 nM, respectively. The 5-HT1A Function GTPγS (Imax) in test [1] (setting [5]) came to 59%. Further, the Emax on 5-HT1A receptor [2] came out at 0%.
Regarding `CC(CCc1c[nH]c2ccc(F)cc12)N(CC1CC1)C1COc2c(F)ccc(C(N)=O)c2C1` (single isomer, unassigned; (+)) [Compound 15b, (+)-3-{(cyclopropylmethyl)[3-(5-fluoro-1H-indol-3-yl)-1-methylpropyl]amino}-8-fluorochromane-5-carboxamide], the Ki at serotonin transporter was 46.7 nM; on 5-HT1A receptor [3], 31.7 nM. For the same molecule, the concentration giving a half-maximal response (EC50) in test [1] came to 108 nM; at 5-HT1A receptor [2], 32.4 nM. The Emax in test [1] (setting [4]) is 32%. In addition, the 5-HT1A Function cAMP (Emax) on 5-HT1A receptor [2] turned out to be 73%.
With `CCN(C(C)CCc1c[nH]c2ccc(F)cc12)C1COc2c(F)ccc(C(N)=O)c2C1` (single isomer, unassigned; (+)) [Compound 16b, (+)-3-{ethyl[3-(5-fluoro-1H-indol-3-yl)-1-methylpropyl]amino}-8-fluorochromane-5-carboxamide], the figures for the inhibitory constant (Ki) at serotonin transporter and at 5-HT1A receptor [3] were 0.95 nM and 128 nM, respectively. Further, the results for the EC50 (in test [1]; on 5-HT1A receptor [2]) were 807 nM and 164 nM, respectively. Further, the Emax in test [1] (setting [4]) turned out to be 20%. Besides, the 5-HT1A Function cAMP (Emax) at 5-HT1A receptor [2] was 64.5%.
For the molecule `CCCN(CCCc1c[nH]c2ccc(F)cc12)C1CCc2c(F)ccc(OC)c2C1` (single isomer, unassigned; (+)) [Compound 51a, (+)-5-fluoro-N-[3-(5-fluoro-1H-indol-3-yl)propyl]-8-methoxy-N-propyl-1,2,3,4-tetrahydro-2-naphthalenamine], the inhibitory constant (Ki) came out at 1.15 nM at serotonin transporter and 1.71 nM on 5-HT1A receptor [3]. Also, the EC50 amounted to 13 nM in test [1] and 16.5 nM at 5-HT1A receptor [2]. In test [1] (setting [4]), the Emax amounted to 69%. The molecule also yielded a 5-HT1A Function cAMP (Emax) on 5-HT1A receptor [2] of 100%.
Take `NC(=O)c1cccc2c1CC(N(CCCc1c[nH]c3ccc(F)cc13)C1CCC1)CO2` (single isomer, unassigned; (+)) [Compound 134b, (+)-3-{cyclobutyl[3-(5-fluoro-1H-indol-3-yl)propyl]amino}chromane-5-carboxamide]: the Ki at serotonin transporter turned out to be 7.2 nM; on 5-HT1A receptor [3] it was 29.6 nM. Moreover, the EC50 amounted to 581 nM in test [1] and 44.5 nM at 5-HT1A receptor [2]. This molecule gave a 5-HT1A Function GTPγS (Emax) in test [1] (maximum stimulatory effect, in brackets after EC50) of 71%. The same molecule registered a 5-HT1A Function cAMP (Emax) on 5-HT1A receptor [2] of 66.5%.
For `NC(=O)c1ccc(F)c2c1CC(N(CC1CCc3[nH]c4ccc(F)cc4c3C1)C1CCC1)CO2` (single isomer, unassigned; (+)) [Compound 174b, (+)-3-{cyclobutyl[(6-fluoro-2,3,4,9-tetrahydro-1H-carbazol-3-yl)methyl]amino}-8-fluorochromane-5-carboxamide], the Ki at serotonin transporter turned out to be 192 nM; on 5-HT1A receptor [3] it was 0.85 nM. Moreover, the results for the IC50 (in test [1]; on 5-HT1A receptor [2]) were 1440 nM and 64.1 nM, respectively. Moreover, the 5-HT1A Function GTPγS (Imax) in test [1] (setting [5]) was 67%. For the same molecule, the Emax on 5-HT1A receptor [2] stood at 0%.
For `NC(=O)c1ccc(F)c2c1CC(N(CC1CCc3[nH]c4ccc(F)cc4c3C1)C1CCC1)CO2` (single isomer, unassigned; (+)) [Compound 174c, (+)-3-{cyclobutyl[(6-fluoro-2,3,4,9-tetrahydro-1H-carbazol-3-yl)methyl]amino}-8-fluorochromane-5-carboxamide], the Ki on serotonin transporter is 1100 nM. The same molecule showed a 50% effective concentration (EC50) in test [1] of 978 nM. Besides, the Emax in test [1] (setting [4]) worked out at 55%. At 5-HT1A receptor [2], the concentration for half-maximal inhibition (IC50) came out at 607 nM and the 5-HT1A Function cAMP (Emax) is 0%. Also, the inhibition constant (Ki) at 5-HT1A receptor [3] was 185 nM.
Regarding `NC(=O)c1ccc(F)c2c1C[C@@H](NCC1CCc3[nH]c4ccc(F)cc4c3C1)CO2` (single isomer, unassigned; (+)) [Compound 175b], the inhibitory constant (Ki) at serotonin transporter was determined as 47.6 nM; on 5-HT1A receptor [3] it was 31.4 nM. Moreover, the values for the half-maximal inhibitory concentration (IC50) (in test [1]; at 5-HT1A receptor [2]) were 174 nM and 4130 nM, respectively. Also, in test [1] (setting [5]), the 5-HT1A Function GTPγS (Imax) worked out at 55%. This molecule came in with a 5-HT1A Function cAMP (Emax) at 5-HT1A receptor [2] of 0%.
